Results on 29 molecules are retold here after patent US10370343B2, “[6,6] Fused bicyclic HDAC8 inhibitors” (FORMA Therapeutics, Inc., priority 2015, dated 2019).

In test [1] the target is T1, Recombinant N-terminal GST tag full-length human HDAC8 (Homo sapiens, UniProt Q9BY41).
T1 construct: Recombinant N-terminal GST tag full-length human HDAC8; purchased SignalChem H90-30G-1000; host or cells: baculovirus in Sf9 insect cells
T1 sequence (Q9BY41 1-377): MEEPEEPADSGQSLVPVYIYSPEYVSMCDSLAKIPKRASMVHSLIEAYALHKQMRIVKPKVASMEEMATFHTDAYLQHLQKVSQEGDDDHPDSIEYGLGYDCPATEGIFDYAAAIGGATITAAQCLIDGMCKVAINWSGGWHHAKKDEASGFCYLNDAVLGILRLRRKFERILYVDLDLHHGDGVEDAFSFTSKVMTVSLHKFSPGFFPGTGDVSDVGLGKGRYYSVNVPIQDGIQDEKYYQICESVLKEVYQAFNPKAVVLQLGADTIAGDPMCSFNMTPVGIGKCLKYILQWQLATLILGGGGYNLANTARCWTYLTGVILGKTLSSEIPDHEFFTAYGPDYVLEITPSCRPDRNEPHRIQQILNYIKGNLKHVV
The test is described as follows: HDAC8 probe binding assay, time resolved fluorescence (TRF) format. Conditions: compounds grouped by IC50 range (Table 2). Summed up: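 IC50 values come from four-parameter logistic fits of percent inhibition, scaled between DMSO (high) and no-enzyme (low) controls. Time-resolved fluorescence (ex 340, em 485/535 nm) was read after 16 h at room temperature. Enzyme was Sf9-expressed full-length human HDAC8 with an N-terminal GST tag, in a probe-binding format.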

For test [2], the target named is T2, Full length human recombinant HDAC8 protein (Homo sapiens, UniProt Q9BY41).
T2 construct: Full length human recombinant HDAC8 protein was expressed in baculoviral system; made in house
T2 sequence (Q9BY41 1-377): T1 sequence (Q9BY41 1-377)
The test is described as follows: In vitro histone deacetylase assay: enzymatic HDAC8 electrophoretic mobility shift assay. The format is biochemical. The settings on record: electrophoretic mobility shift assay; enzyme 1 nM; 2 μM fluorescently labeled peptide substrate RHKK(Ac)-NH2; 25° C.; 12 concentrations; read-out: HDAC8 IC50.

In general, IC50 refers to the concentration that inhibits the measured activity by half.

Consider `CN1CCCC[C@H]1CN1C(=O)COc2ccc(C(=O)NO)cc21` (stereo in doubt) [Compound I-47, N-hydroxy-4-((1-methylpiperidin-2-yl)methyl)-3-oxo-3,4-dihydro-2H-benzo[b][1,4]oxazine-6-carboxamide], for which the IC50 in test [1] and in test [2] was above 1000 nM each time.

For `O=C(NO)c1ccc2c(c1)N(CC[C@@H]1CCS(=O)(=O)C1)C(=O)CO2` (stereo in doubt) [Compound I-54, 4-(2-(1,1-dioxidotetrahydrothiophen-3-yl)ethyl)-N-hydroxy-3-oxo-3,4-dihydro-2H-benzo[b][1,4]oxazine-6-carboxamide], the IC50 fell in the range of 25 to 100 nM in test [1] and 100 to 1000 nM in test [2].

Turning to `O=C(NO)c1ccc2c(c1)N(Cc1csc(C3CC3)n1)CCO2` [Compound I-20, 4-((2-cyclopropylthiazol-4-yl)methyl)-N-hydroxy-3,4-dihydro-2H-benzo[b][1,4]oxazine-6-carboxamide], the IC50 is above 1000 nM in test [1] and 100 to 1000 nM in test [2].

On to `O=C(NO)c1ccc2c(c1)N(Cc1ccccc1F)CCO2` [Compound I-27, 4-(2-fluorobenzyl)-N-hydroxy-3,4-dihydro-2H-benzo[b][1,4]oxazine-6-carboxamide], for which the IC50 in test [1] is 25 to 100 nM; in test [2], below 25 nM.

For the molecule `O=C(NO)c1ccc2c(c1)N(CC1CCC1)C(=O)CO2` [Compound I-31, 4-(cyclobutylmethyl)-N-hydroxy-3-oxo-3,4-dihydro-2H-benzo[b][1,4]oxazine-6-carboxamide], the IC50 in test [1] and in test [2] was 25 to 100 nM each time.

In the case of `O=C(NO)c1ccc2c(c1)N(Cc1cccc(F)c1)C(=O)CO2` [Compound I-33, 4-(3-fluorobenzyl)-N-hydroxy-3-oxo-3,4-dihydro-2H-benzo[b][1,4]oxazine-6-carboxamide], the IC50 in test [1] was at most 25 nM; in test [2], 25 to 100 nM.

On to `O=C(NO)c1ccc2c(c1)N(Cc1ccc(OC(F)(F)F)cc1)C(=O)CO2` [Compound I-36, N-hydroxy-3-oxo-4-(4-(trifluoromethoxy)benzyl)-3,4-dihydro-2H-benzo[b][1,4]oxazine-6-carboxamide], for which the IC50 in test [1] is at most 25 nM; in test [2], below 25 nM.

As for `O=C(NO)c1ccc2c(c1)N(Cc1ccc(F)cc1)C(=O)CO2` [Compound I-37, 4-(4-fluorobenzyl)-N-hydroxy-3-oxo-3,4-dihydro-2H-benzo[b][1,4]oxazine-6-carboxamide], the IC50 in test [1] is at most 25 nM; in test [2], below 25 nM.

Regarding `Cc1ccc(CN2C(=O)COc3ccc(C(=O)NO)cc32)cc1` [Compound I-38, N-hydroxy-4-(4-methylbenzyl)-3-oxo-3,4-dihydro-2H-benzo[b][1,4]oxazine-6-carboxamide], the IC50 in test [1] was at most 25 nM; in test [2], below 25 nM.

For the molecule `CCCCN1C(=O)COc2ccc(C(=O)NO)cc21` [Compound I-45, 4-butyl-N-hydroxy-3-oxo-3,4-dihydro-2H-benzo[b][1,4]oxazine-6-carboxamide], the IC50 in test [1] and in test [2] was 25 to 100 nM in each case.

With `O=C(NO)c1ccc2c(c1)N(CCOCC1CC1)C(=O)CO2` [Compound I-50, 4-(2-(cyclopropylmethoxy)ethyl)-N-hydroxy-3-oxo-3,4-dihydro-2H-benzo[b][1,4]oxazine-6-carboxamide], the IC50 in test [1] and in test [2] was 25 to 100 nM throughout.

Consider `O=C(NO)c1ccc2c(c1)N(CCOCC(F)(F)F)C(=O)CO2` [Compound I-53, N-hydroxy-3-oxo-4-(2-(2,2,2-trifluoroethoxy)ethyl)-3,4-dihydro-2H-benzo[b][1,4]oxazine-6-carboxamide], for which the IC50 in test [1] and in test [2] was 25 to 100 nM in each case.

On to `O=C(NO)c1ccc2c(c1)N(CCc1ccccc1)C(=O)CO2` [Compound I-58, N-hydroxy-3-oxo-4-phenethyl-3,4-dihydro-2H-benzo[b][1,4]oxazine-6-carboxamide], for which the IC50 in test [1] and in test [2] was 25 to 100 nM in each case.

Consider `CC(C)CCN1C(=O)COc2ccc(C(=O)NO)cc21` [Compound I-59, N-hydroxy-4-isopentyl-3-oxo-3,4-dihydro-2H-benzo[b][1,4]oxazine-6-carboxamide], for which the IC50 in test [1] and in test [2] was 25 to 100 nM each time.

For the molecule `COc1cccc(CN2C(=O)COc3ccc(C(=O)NO)cc32)c1` [Compound I-60, N-hydroxy-4-(3-methoxybenzyl)-3-oxo-3,4-dihydro-2H-benzo[b][1,4]oxazine-6-carboxamide], the IC50 in test [1] and in test [2] was 25 to 100 nM each time.

`O=C(NO)c1ccc2c(c1)N(Cc1ccc3nonc3c1)C(=O)CO2` [Compound I-62, 4-(benzo[c][1,2,5]oxadiazol-5-ylmethyl)-N-hydroxy-3-oxo-3,4-dihydro-2H-benzo[b][1,4]oxazine-6-carboxamide]: the IC50 is 25 to 100 nM in test [1] and below 25 nM in test [2].

Consider `O=C(NO)c1ccc2c(c1)N(Cc1ccc(Cl)cc1)C(=O)CO2` [Compound I-64, 4-(4-chlorobenzyl)-N-hydroxy-3-oxo-3,4-dihydro-2H-benzo[b][1,4]oxazine-6-carboxamide], for which the IC50 in test [1] is at most 25 nM; in test [2] it was below 25 nM.

With `Cc1cccc(CN2C(=O)COc3ccc(C(=O)NO)cc32)c1` [Compound I-68, N-hydroxy-4-(3-methylbenzyl)-3-oxo-3,4-dihydro-2H-benzo[b][1,4]oxazine-6-carboxamide], the IC50 in test [1] was at most 25 nM; in test [2], 25 to 100 nM.

Consider `Cc1cccc(CN2C(=O)COc3ccc(C(=O)NO)cc32)c1F` [Compound I-74, 4-(2-fluoro-3-methylbenzyl)-N-hydroxy-3-oxo-3,4-dihydro-2H-benzo[b][1,4]oxazine-6-carboxamide], for which the values for the IC50 in test [1] and in test [2] were at most 25 nM and below 25 nM, respectively.

`Cc1nc(-c2ccccc2)sc1CN1C(=O)COc2ccc(C(=O)NO)cc21` [Compound I-76, N-hydroxy-4-((4-methyl-2-phenylthiazol-5-yl)methyl)-3-oxo-3,4-dihydro-2H-benzo[b][1,4]oxazine-6-carboxamide]: the IC50 in test [1] and in test [2] was 25 to 100 nM each time.

With `O=C(NO)c1ccc2c(c1)N(Cc1cn(-c3ccccc3)nn1)C(=O)CO2` [Compound I-77, N-hydroxy-3-oxo-4-[(1-phenyl-1H-1,2,3-triazol-4-yl)methyl]-3,4-dihydro-2H-1,4-benzoxazine-6-carboxamide], the results for the IC50 in test [1] and in test [2] were at most 25 nM and below 25 nM, respectively.

On to `CS(=O)(=O)c1ccc(CN2CCS(=O)(=O)c3ccc(C(=O)NO)cc32)cc1` [Compound I-82, N-hydroxy-4-(4-(methylsulfonyl)benzyl)-3,4-dihydro-2H-benzo[b][1,4]thiazine-6-carboxamide-1,1-dioxide], for which the IC50 is at most 25 nM in test [1] and below 25 nM in test [2].

Take `CC(c1ccc(S(C)(=O)=O)cc1)N1C(=O)COc2ccc(C(=O)NO)cc21` (stereo not shown) [Compound I-94, N-hydroxy-4-(1-(4-(methylsulfonyl)phenyl)ethyl)-3-oxo-3,4-dihydro-2H-benzo[b][1,4]oxazine-6-carboxamide]: the IC50 in test [1] was at most 25 nM; in test [2], below 25 nM.

As for `CC(c1c(F)cccc1F)N1C(=O)COc2ccc(C(=O)NO)cc21` (stereo not shown) [Compound I-96, 4-(1-(2,6-difluorophenyl)ethyl)-N-hydroxy-3-oxo-3,4-dihydro-2H-benzo[b][1,4]oxazine-6-carboxamide], the IC50 in test [1] and in test [2] was 25 to 100 nM in each case.

As to `COc1ccc(CN2C(=O)C(C)(C)Oc3ccc(C(=O)NO)cc32)cc1` [Compound I-98, N-hydroxy-4-(4-methoxybenzyl)-2,2-dimethyl-3-oxo-3,4-dihydro-2H-benzo[b][1,4]oxazine-6-carboxamide], the IC50 in test [1] and in test [2] was 25 to 100 nM each time.

With `CCC1Oc2ccc(C(=O)NO)cc2N(Cc2ccc(OC)cc2)C1=O` (stereo not shown) [Compound I-99, 2-ethyl-N-hydroxy-4-(4-methoxybenzyl)-3-oxo-3,4-dihydro-2H-benzo[b][1,4]oxazine-6-carboxamide], the IC50 in test [1] is at most 25 nM; in test [2] it was below 25 nM.

Regarding `COc1ccc(CN2C(=O)C(C(C)C)Oc3ccc(C(=O)NO)cc32)cc1` (stereo not shown) [Compound I-100, N-hydroxy-2-isopropyl-4-(4-methoxybenzyl)-3-oxo-3,4-dihydro-2H-benzo[b][1,4]oxazine-6-carboxamide], the IC50 in test [1] was at most 25 nM; in test [2], below 25 nM.

On to `COc1ccc(CN2C(=O)C(c3ccccc3)Oc3ccc(C(=O)NO)cc32)cc1` (stereo not shown) [Compound I-101, N-hydroxy-4-(4-methoxybenzyl)-3-oxo-2-phenyl-3,4-dihydro-2H-benzo[b][1,4]oxazine-6-carboxamide], for which the IC50 in test [1] is at most 25 nM; in test [2], below 25 nM.

For `COc1ccc(CN2C(=O)C(Cc3ccccc3)Oc3ccc(C(=O)NO)cc32)cc1` (stereo not shown) [Compound I-102, 2-benzyl-N-hydroxy-4-(4-methoxybenzyl)-3-oxo-3,4-dihydro-2H-benzo[b][1,4]oxazine-6-carboxamide], the IC50 was at most 25 nM in test [1] and 25 to 100 nM in test [2].
